These results are taken from patent publication US20240300886A1, “ARYLCYCLOHEXYLAMINE DERIVATIVES AND THEIR USE IN THE TREATMENT OF PSYCHIATRIC DISORDERS” (GILGAMESH PHARMACEUTICALS, INC., priority 2021, published 2024).

Data set [1] in a line: Metabolic stability in human liver microsomes (HLM). The class given is in vitro ADME. The note with it: 0.50 mg protein/mL, NADPH; for Clint: 1 μM compound; for half-life at 1 μM: both sexes, human, pooled human liver microsomes, pH 7.4, 1 μM compound. The method, then:
(§1) HLM Stability. Pooled HLM from adult male and female donors (Corning 452117) were used. Microsomal incubations were carried out in multi-well plates. Liver microsomal incubation medium consisted of PBS (100 mM, pH 7.4), MgCl2 (1 mM), and NADPH (1 nmM), with 0.50 mg of liver microsomal protein per mL. Control incubations were performed by replacing the NADPH-cofactor system with PBS. Test compounds (1 μM, final solvent concentration 1.0%) were incubated with microsomes at 37° C. with constant shaking, Six time points over 60 minutes were analyzed, with 60 μL aliquots of the reaction mixture being drawn at each time point. The reaction aliquots were stopped by adding 180 μL of cold (4° C.) acetonitrile containing 200 ng/mL tolbutamide and 200 ng/mL labetalol as internal standards (IS), followed by shaking for 10 minutes, and then protein sedimentation by centrifugation at 4,000 rpm for 20 minutes at 4° C. Supernatant samples (80 μL) were diluted with water (240 μL) and analyzed for parent compound remaining using a fit-for-purpose liquid chromatography-tandem mass spectrometry (LC-MS/MS) method.
(§2) Data Analysis. The elimination constant (kel), half-life (t1/2) and intrinsic clearance (Clint) were determined in a plot of […] versus time, using linear regression analysis.
A general note: Liver microsomes are a subcellular fraction often used to study metabolism.

Data set [2] in a line: Metabolic stability in mouse liver microsomes (MLM). The class given is in vitro ADME, CD-1 mice. Particulars: male, CD-1, mouse, pooled mouse liver microsomes, pH 7.4, 1 μM compound, 0.50 mg protein/mL, NADPH. Here is the method: as §1, with “MLM” for “HLM”, “from” for “from adult”, “CD-1 mice (XenoTech M1000)” for “and female donors (Corning 452117)”, “mM),” for “nmM),”, “shaking.” for “shaking,”
Data Analysis. The elimination constant (kel), half-life (t1/2) and intrinsic clearance (Clint) were determined in a plot of ln(AUC) versus […], using linear regression analysis.

A short description of data set [3]: Metabolic stability in rat liver microsomes (RLM). The format is in vitro ADME, Sprague Dawley rats. The method, then:
as §1, with “RLM” for “HLM”, “from” for “from adult”, “Sprague Dawley rats (XenoTech R1000)” for “and female donors (Corning 452117)”, “mM),” for “nmM),”, “shaking.” for “shaking,”
as §2

Data set [4] can be described thus: Comparative metabolism/PK of 2R and deuterated 7R in rats after oral administration. The format is in vivo, Sprague Dawley rats. Particulars: for concentration at 0.083 h / concentration at 0.25 h / concentration at 0.5 h / concentration at 1 h / concentration at 2 h / concentration at 4 h: oral; for concentration at 0.083 h: 0.083 h after 10 mg/kg po of 2R or 7R; for concentration at 0.25 h: 0.25 h after 10 mg/kg po of 2R or 7R; for concentration at 0.5 h: 0.5 h after 10 mg/kg po of 2R or 7R; for concentration at 1 h: 1 h after 10 mg/kg po of 2R or 7R; for concentration at 2 h: 2 h after 10 mg/kg po of 2R or 7R; for concentration at 4 h: 4 h after 10 mg/kg po of 2R or 7R. The method, then:
Animals. Male Sprague Dawley rats were used in these studies. Animals were randomly assigned to treatment groups and were fasted for 4 h before dosing.
Drugs. Test compounds 2R and 7R were dissolved in a vehicle consisting of normal saline. They were then administered orally (po) at a dose of 10 mg/kg (calculated based on freebase), and at a volume of 5 mL/kg body weight.
Sample Collection and Bioanalysis. Blood samples (approximately 60 μL) were collected under light isoflurane anesthesia (Surgivet®) from the retro orbital plexus at 0.08, 0.25, 0.5, 1, 2, 4, 8, and 24 h (4 animals per time point). Immediately after blood collection, plasma was harvested by centrifugation at 4,000 rpm for 10 min at 4° C. and samples were stored at −70±10° C. until bioanalysis. Following blood collection, animals were immediately sacrificed, the abdominal vena-cava was cut open, and the whole body was perfused from the heart using 10 mL of normal saline, and brain samples were collected from all animals. After isolation, brain samples were rinsed three times in ice-cold normal saline (for 5-10 seconds/rinse using ˜5-10 mL normal saline in disposable petri dish for each rinse) and dried on blotting paper. Brain samples were homogenized using ice-cold phosphate-buffered saline (pH 7.4) Total homogenate volume was three times the tissue weight. All homogenates were stored at −70±10° C. until bioanalysis. For bioanalysis, 25 μL aliquots of plasma/brain study samples or spiked plasma/brain calibration standards were added to individual pre-labeled micro-centrifuge tubes followed by 100 μL of an internal standard solution (glipizide, 500 ng/mL in acetonitrile) except for blanks, where 100 μL of acetonitrile was added. Samples were vortexed for 5 minutes and then centrifuged for 10 minutes at 4,000 rpm at 4° C. Following centrifugation, 100 μL of each clear supernatant was transferred to a 96 well plate and analyzed with a fit-for-purpose LC-MS/MS method, with authentic samples of each analyte used for calibration and identification. Concentrations of parent compound (2R or 7R) and metabolite 1R were determined in all samples.
Data Analysis. Pharmacokinetic parameters were estimated using the non-compartmental analysis tool of Phoenix® WinNonlin software (Ver 8.0).

Where [5] appears, read: male, Sprague Dawley, rat, pooled rat liver microsomes, pH 7.4, 1 μM compound, 0.50 mg protein/mL, NADPH.
Where [6] appears, read: male, Sprague Dawley, rat, brain, 10 mg/kg, rat brain, read-out: Mean brain concentration.
[7] abbreviates: male, Sprague Dawley, rat, plasma, 10 mg/kg, rat plasma, read-out: Mean plasma concentration.
[8] abbreviates: rat brain after 10 mg/kg po of 2R or 7R, parent or metabolite 1R as labelled.

Read-outs that look alike come from different tables or passages of the source.

For the compound `NC1(c2ccc(F)cc2)CCCCC1=O` (racemic) [Compound 1, 2-amino-2-(4-fluorophenyl)cyclohexan-1-one], in data set [1], the Clint is given as <9.6 μL/min/m and the half-life at 1 μM was > 2.42 h. In data set [2], the half-life at 1 μM was > 2.42 h and the microsomal CLint at 1 μM is < 9.6 µL/min/mg. The “metabolic stability in RLM (in words)” value in data set [3] is reported as “much greater stability”. For the same compound, in data set [3] (setting [5]), the half-life at 1 μM is > 2.42 h and the microsomal CLint at 1 μM is < 9.6 µL/min/mg.
For `CNC1(c2ccc(F)cc2)CCCCC1=O` (racemic) [Compound 2], the Clint in data set [1] is listed as <9.6 μL/min/m. The results for the half-life at 1 μM in data set [1], in data set [2] and in data set [3] (setting [5]) were > 2.42 h, 1.68 h and 1.18 h, respectively. Besides, the “metabolic stability in RLM (in words)” value in data set [3] is reported as “much greater stability”.
Consider `NC1(c2cccc(F)c2)CCCCC1=O` (racemic) [Compound 3, 2-amino-2-(3-fluorophenyl)cyclohexan-1-one], for which the “metabolic stability in RLM (in words)” value in data set [3] is “much greater stability”.
As for `[2H]C([2H])([2H])N[C@@]1(c2ccc(F)cc2)CCCCC1=O` [Compound 7R], in data set [4] (setting [6]), the concentration at 0.083 h was determined as 98 ng/g, the concentration at 0.25 h amounted to 2090 ng/g, the concentration at 0.5 h was found to be 2200 ng/g and the concentration at 1 h was found to be 1770 ng/g. Also, in data set [4] (setting [6]), the concentration at 2 h was determined as 1420 ng/g and the concentration at 4 h came to 236 ng/g. The half-life in data set [4] (male, Sprague Dawley, rat, brain, po, 10 mg/kg, rat brain after 10 mg/kg po of 2R or 7R, parent or metabolite 1R as labelled, read-out: t1/2 (brain)) amounted to 1.12 h. Besides, in data set [4] (setting [7]), the concentration at 0.083 h is 65 ng/mL, the concentration at 0.25 h is 502 ng/mL, the concentration at 0.5 h is 799 ng/mL and the concentration at 1 h came out at 564 ng/mL. For the same compound, in data set [4] (setting [7]), the concentration at 2 h worked out at 396 ng/mL and the concentration at 4 h was determined as 68 ng/mL. In addition, the Cmax in data set [4] (male, Sprague Dawley, rat, plasma, po, 10 mg/kg, rat plasma after 10 mg/kg po of 2R or 7R, parent or metabolite 1R as labelled) worked out at 799 ng/mL. For the same compound, the AUC(0-t) in data set [4] (male, Sprague Dawley, rat, plasma, po, 10 mg/kg, rat plasma after 10 mg/kg po of 2R or 7R, parent or metabolite 1R as labelled, read-out: AUC0-last (plasma) (converted)) is 1650 ng·h/mL. Further, the half-life in data set [4] (male, Sprague Dawley, rat, plasma, po, 10 mg/kg, rat plasma after 10 mg/kg po of 2R or 7R, parent or metabolite 1R as labelled, read-out: t1/2 (plasma)) came to 1.08 h. In data set [4] (setting [8]), the “AUC0-last (brain)” value was found to be 330347 ng·min/g and the “Cmax (brain)” value was determined as 2197 ng/g. The “exposure (AUC) in plasma and brain compared to non-deuterated 2R” value in data set [4] (rats, 10 mg/kg po) is on record as “greater exposure”.
Compound `Cc1ccc(C2(N)CCCCC2=O)cc1` (centres unmarked) [Compound 10, 2-amino-2-(p-tolyl)cyclohexan-1-one] returned a half-life at 1 μM in data set [3] (setting [5]) of 0.06 h.
In the case of `CNC1(c2ccc(C)cc2)CCCCC1=O` (centres unmarked) [Compound 11, 2-(methylamino)-2-(p-tolyl)cyclohexan-1-one], in data set [3] (setting [5]), the half-life at 1 μM came out at 0.055 h.
`Cc1cccc(C2(N)CCCCC2=O)c1` (centres unmarked) [Compound 12, 2-amino-2-(m-tolyl)cyclohexan-1-one]: the half-life at 1 μM in data set [3] (setting [5]) was determined as 0.12 h.

By microsomal CLint is commonly meant the capacity of the preparation to metabolise the compound, expressed as a volume cleared per time. In general, Cmax refers to the highest concentration seen after dosing.
